Values quoted from earlier work as cited in patent US20050209190A1, “Camptothecin complexes” (priority 2000, published 2005).

Columns and labels:
[1] = test system: human colon cancer xenografts; settings: mouse, in vivo
[2] = administered intravenously; studies abandoned
[3] = test system: nontumorigenic human cells; settings: in vitro
[4] = test system: tumorigenic human cells; settings: in vitro
[5] = test system: human tumor xenografts

SMILES: CC[C@@]1(O)C(=O)OCc2c1cc1n(c2=O)Cc2cc3c(N)cccc3nc2-1 [Example 9AC, 9-Amino-20(S)-Camptothecin]
- anticancer activity against human colon cancer xenografts [1]: high anticancer activity

SMILES: CC[C@@](O)(C(=O)[O-])c1cc2n(c(=O)c1CO)Cc1cc3ccccc3nc1-2.[Na+] [CPT Na+]
- potency in clinical trials [2]: low potency
- toxicity in clinical trials [2]: high toxicity

SMILES: CC[C@@]1(O)C(=O)OCc2c1cc1n(c2=O)Cc2cc3ccccc3nc2-1 [CPT, 20(S)-camptothecin]
- effect on nontumorigenic cells [3]: cytostatic
- solubility in water: insoluble in water
- effect on tumorigenic cells [4]: cytotoxic

SMILES: CC[C@@]1(O)C(=O)OCc2c1cc1n(c2=O)Cc2cc3cc4c(cc3nc2-1)OCO4 [10,11 MD, 10,11-Methylendioxy-20(S)-Camptothecin]
- anticancer activity against human colon cancer xenografts [1]: high anticancer activity

SMILES: CC[C@@]1(O)C(=O)OCc2c1cc1n(c2=O)Cc2cc3c([N+](=O)[O-])cccc3nc2-1 [Example 9NC, 9-nitrocamptothecin]
- growth of human tumor xenografts ([5]; immunodeficient nude mice): inhibited the growth
- activity against human tumor xenograft models ([5]; mouse, in vivo): high activity
- regression of human tumors established as xenografts ([5]; nude mice): induced regression
